The test system of one assay is IKBKAP gene.
Assay: not given
To be noted: as reported in International Publication No. WO2016/115434; cited from earlier work.
Consider `Clc1nc(NCc2ccncc2)c2cc[nH]c2n1` [Comparison Compound 1, 2-chloro-N-(pyridin-4-ylmethyl)-7H-pyrrolo[2,3-d]pyrimidin-4-amine], for which the “potency in correcting mRNA splicing and promoting exon 20 inclusion in the IKBKAP gene” value was “very potent”.

For the next assay, the system named is MAPT 3R mRNA (Microtubule associated protein Tau). As to the kind of experiment: RT-qPCR Assay to Quantify MAPT 3R mRNA in Cells. The format is cell-based. The conditions noted are these: MAPT 3R mRNA by RT-qPCR, GAPDH assay in same reaction; cells treated 24 h; 7-point concentration curve. (In general: Real-time PCR tracks product formation cycle by cycle.)
Turning to `C[C@H](N)Cc1c(F)c2c(NCc3ccncc3F)nc(Cl)nc2n1C` [Cpd 41, 6-[(2S)-2-aminopropyl]-2-chloro-5-fluoro-N-[(3-fluoropyridin-4-yl)methyl]-7-methyl-7H-pyrrolo[2,3-d]pyrimidin-4-amine], the EC (2-fold increase) was in the range of 0.5 to 1 µM. For `C[C@H](N)Cc1c(F)c2c(NCc3ccncc3)nc(Cl)nc2n1C` [Cpd 43, 6-[(2S)-2-aminopropyl]-2-chloro-5-fluoro-7-methyl-N-[(pyridin-4-yl)methyl]-7H-pyrrolo[2,3-d]pyrimidin-4-amine], the EC (2-fold increase) was 0.5 to 1 µM. Same read-out and setting: under `C[C@H](N)Cc1c(F)c2c(NCc3cccs3)nc(Cl)nc2n1C` [Cpd 49, 6-[(2S)-2-aminopropyl]-2-chloro-5-fluoro-7-methyl-N-[(thiophen-2-yl)methyl]-7H-pyrrolo[2,3-d]pyrimidin-4-amine] stands 0.05 to 0.5 µM; under `Cc1c(C[C@H](C)N)n(C)c2nc(Cl)nc(NCc3ccco3)c12` [Cpd 35, 6-[(2S)-2-aminopropyl]-2-chloro-N-[(furan-2-yl)methyl]-5,7-dimethyl-7H-pyrrolo[2,3-d]pyrimidin-4-amine], 0.05 to 0.5 µM; under `C[C@H](N)Cc1c(F)c2c(NCc3nccs3)nc(Cl)nc2n1C` [Cpd 38, 6-[(2S)-2-aminopropyl]-2-chloro-5-fluoro-7-methyl-N-[(1,3-thiazol-2-yl)methyl]-7H-pyrrolo[2,3-d]pyrimidin-4-amine], 0.5 to 1 µM. With `CNCCc1[nH]c2nc(Cl)nc(NCc3ccco3)c2c1Cl` [Cpd 17, 2,5-dichloro-N-[(furan-2-yl)methyl]-6-[2-(methylamino)ethyl]-7H-pyrrolo[2,3-d]pyrimidin-4-amine], the EC (2-fold increase) is 1 to 1.5 µM. Turning to `C[C@H](N)Cc1c(Cl)c2c(NCc3ccco3)nc(Cl)nc2n1C` [Cpd 23, 6-[(2S)-2-aminopropyl]-2,5-dichloro-N-[(furan-2-yl)methyl]-7-methyl-7H-pyrrolo[2,3-d]pyrimidin-4-amine], the EC (2-fold increase) was 0.05 to 0.5 µM. Regarding `C[C@H](N)Cc1[nH]c2nc(Cl)nc(NCc3ccco3)c2c1F` [Cpd 10, 6-[(2S)-2-aminopropyl]-2-chloro-5-fluoro-N-[(furan-2-yl)methyl]-7H-pyrrolo[2,3-d]pyrimidin-4-amine], the EC (2-fold increase) lay within 0.05 to 0.5 µM.

For `C[C@H](N)Cc1c(F)c2c(NCc3ccco3)nc(Cl)nc2n1C` [Cpd 24, 6-[(2S)-2-aminopropyl]-2-chloro-5-fluoro-N-[(furan-2-yl)methyl]-7-methyl-7H-pyrrolo[2,3-d]pyrimidin-4-amine], the EC (2-fold increase) lay within 0.05 to 0.5 µM.

The values are drawn from patent publication US20240382491A1, “METHODS FOR TREATING NEUROGENERATIVE DISEASES” (PTC THERAPEUTICS, INC., priority 2021, published 2024).
